No end group written: not given here.
What was measured:
Assay in all cases: biochemical
Assay type in all cases: binding
A*0202 = A*0202 (Homo sapiens, UniProt P04439, D140Y/D185E/D98H/E176V/E277Q/G131W/G231S/I119L/I121R/I166T/I218V/L180W/L300P/L318F/N151K/N90K/P208A/P217A/Q67R/Q86G/Q94H/R138H/R169H/T345S)
A*0203 = A*0203 (Homo sapiens, UniProt P04439, A173T/D140Y/D185E/D98H/E277Q/G131W/G231S/I119V/I121R/I166T/I218V/L180W/L300P/L318F/N151K/N90K/P208A/P217A/Q86G/Q94H/R138H/R169H/T345S)
A*0206 = A*0206 (Homo sapiens, UniProt P04439, D140Y/D185E/D98H/E176V/E277Q/F33Y/G131W/G231S/I119V/I121R/I166T/I218V/L300P/L318F/N151K/N90K/P208A/P217A/Q86G/Q94H/R138H/R169H/T345S)
HLA-A*0201 (HLA-A2.1) = HLA-A*0201 (HLA-A2.1) (Homo sapiens, UniProt P04439, D140Y/D185E/D98H/E176V/E277Q/G131W/G231S/I119V/I121R/I166T/I218V/L300P/L318F/N151K/N90K/P208A/P217A/Q86G/Q94H/R138H/R169H/T345S)
A*6802 = A*6802 (Homo sapiens, UniProt P04439, A269V/D140Y/D185E/E176V/E277Q/E87N/F33Y/G231S/I121R/I166T/I218V/L180W/L300P/L318F/N151K/P208A/P217A/Q86R/R138H/R169H/S129P/T345S/V36M)

Row | Compound | IC50 (A*0202) | IC50 (A*0203) | IC50 (A*0206) | IC50 (HLA-A*0201 (HLA-A2.1)) | IC50 (A*6802)
1 | CC(C)[C@H](NC(=O)[C@@H](NC(=O)[C@H](CC(N)=O)NC(=O)[C@H](CCC(N)=O)NC(=O)[C@H](C)NC(=O)[C@H](CCC(=O)O)NC(=O)[C@@H]1CCCN1C(=O)[C@H](CCC(=O)O)NC(=O)[C@H](CS)NC(=O)[C@@H](NC(=O)[C@@H](N)Cc1ccccc1)[C@@H](C)O)[C@@H](C)O)C(=O)O [Peptide 9013.0323] | 29 nM | 86 nM | 920 nM | 336 nM | 
2 | AIFGVNPTV [Peptide 1578.25] | 21 nM | 92 nM | 96 nM | 205 nM | 
3 | ALYSWLIDGNI [Peptide 9013.0315] | 3.6 nM | 7 nM | 92 nM | 25 nM | 
4 | AQYSWFVNGV [Peptide 9013.0172] | 1.2 nM | 2.4 nM | 13 nM |  | 12000 nM
5 | AQYSWLIDGNV [Peptide 9013.0314] | 62 nM | 48 nM | 70 nM |  | 15600 nM
6 | ELLLLVHNL [Peptide 9013.0022] | 1880 nM | > 20000 nM | 7180 nM |  | 
7 | FLGALKSFL [Peptide 1578.11] | 0.3 nM | 2.1 nM | 1720 nM | 719 nM | 
8 | FLQGCIISYA [Peptide 1578.18] | 2.6 nM | 9 nM | 241 nM | 93 nM | 
9 | FQQSTQELFV [Peptide 9013.0178] | 21 nM | 46 nM | 60 nM |  | > 20000 nM
10 | GLLVGVALI [Peptide 9013.0111] | 89 nM | 13 nM | 206 nM | 158 nM | 
11 | GLSLPVSPRL [Peptide 9013.0220] | 223 nM | 3870 nM | > 20000 nM |  | > 20000 nM
12 | GMGCTGWFEV [Peptide 1578.19] | 37 nM | 62 nM | 1460 nM |  | 1320 nM
13 | GTFQQSTQEV [Peptide 9013.0175] | 157 nM | 431 nM | 2050 nM | > 20000 nM | 
14 | GVLVGVALV [Peptide 9013.0110] | 6090 nM | 472 nM | 56 nM | 946 nM | 
15 | ILIGVLVGVAL [Peptide 9013.0347] |  | 1010 nM | 120 nM | 1520 nM | > 20000 nM
16 | ILNIIQNDT [Peptide 9013.0033] |  | 8010 nM | > 20000 nM | > 20000 nM | > 20000 nM
17 | ILNTTYLWWV [Peptide 9013.0195] | 121 nM | 22 nM | 775 nM |  | 15900 nM
18 | ILQHTQELFI [Peptide 9013.0212] | 49 nM | 594 nM | > 20000 nM |  | > 20000 nM
19 | ILYAHIQCL [Peptide 1578.08] | 9.4 nM | 10 nM | 420 nM |  | 16400 nM
20 | ITIGVLVGV [Peptide 9013.0109] | 43 nM | 16 nM | 55 nM |  | 9 nM
21 | ITVNNSGSYV [Peptide 9013.0187] | 334 nM | 255 nM | 1010 nM | > 20000 nM | 
22 | KLLEKLLCI [Peptide 1578.15] |  | 15 nM | 51 nM |  | > 20000 nM
23 | KVTIESTPFNV [Peptide 9013.0265] |  | 40 nM | 93 nM | 2580 nM | 1550 nM
24 | LIQPYSIYA [Peptide 86.0202] |  | 2110 nM | 428 nM | 1400 nM | 3300 nM
25 | LLIESTPFNV [Peptide 9013.0128] | 4 nM | 8.1 nM | 62 nM | 16 nM | 
26 | LLLVHNLPQHV [Peptide 9013.0275] |  | 652 nM | 5140 nM | 4820 nM | > 20000 nM
27 | LQGAIISFV [Peptide 1578.28] | 6.6 nM | 11 nM | 20 nM | 42 nM | 
28 | LTFWNPPTV [Peptide 9013.0006] | 17 nM | 2.3 nM | 5.2 nM | 3.4 nM | 
29 | LTNTGLYNL [Peptide 1481.17] | 20 nM | 4990 nM | 1830 nM |  | 1580 nM
30 | NLAEGKEVLL [Peptide 9013.0134] | 9.2 nM | 2030 nM | 16900 nM |  | > 20000 nM
